ChEMBL document CHEMBL5260845, “Flavone-based arylamides as potential anticancers: Design, synthesis and in vitro cell-based/cell-free evaluations” (2020)
The source made the active and inactive calls. The calls are words filed in the database; no cut-off is given here.

Experiments:
[1] = test system: RPMI-8226; assay: Antiproliferative activity against human RPMI-8226 cells assessed as cell growth inhibition at 10 uM by SRB assay relative to control; format: functional
[2] = test system: NCI-H460; assay: Antiproliferative activity against human NCI-H460 cells assessed as cell growth inhibition at 10 uM by SRB assay relative to control; format: functional
[3] = test system: COLO 205; assay: Antiproliferative activity against human COLO 205 cells assessed as cell growth inhibition at 10 uM by SRB assay; format: functional, cell-based
[4] = test system: HCC 2998; assay: Antiproliferative activity against human HCC 2998 cells assessed as cell growth inhibition at 10 uM by SRB assay; format: functional, cell-based
[5] = test system: HCT-116; assay: Antiproliferative activity against human HCT-116 cells assessed as cell growth inhibition at 10 uM by SRB assay; format: functional, cell-based
[6] = test system: HCT-15; assay: Antiproliferative activity against human HCT-15 cells assessed as cell growth inhibition at 10 uM by SRB assay; format: functional, cell-based
[7] = test system: HT-29; assay: Antiproliferative activity against human HT-29 cells assessed as cell growth inhibition at 10 uM by SRB assay; format: functional, cell-based
[8] = test system: KM12; assay: Antiproliferative activity against human KM12 cells assessed as cell growth inhibition at 10 uM by SRB assay; format: functional, cell-based
[9] = test system: SW-620; assay: Antiproliferative activity against human SW620 cells assessed as cell growth inhibition at 10 uM by SRB assay; format: functional, cell-based
[10] = test system: SNB-19; assay: Antiproliferative activity against temozolomide resistant human SNB-19 cells assessed as cell growth inhibition at 10 uM by SRB assay; format: functional, cell-based
[11] = test system: UACC-62; assay: Antiproliferative activity against human UACC-62 cells assessed as cell growth inhibition at 10 uM by SRB assay relative to control; format: functional
[12] = test system: OVCAR-4; assay: Antiproliferative activity against human OVCAR-4 cells assessed as cell growth inhibition at 10 uM by SRB assay relative to control; format: functional
[13] = test system: OVCAR-8; assay: Antiproliferative activity against human OVCAR-8 cells assessed as cell growth inhibition at 10 uM by SRB assay relative to control; format: functional
[14] = test system: 786-0; assay: Antiproliferative activity against human 786-0 cells assessed as inhibition of cell growth at 10 uM by SRB assay relative to control; format: functional
[15] = test system: ACHN; assay: Antiproliferative activity against human ACHN cells assessed as inhibition of cell growth at 10 uM by SRB assay relative to control; format: functional; details: pooled result: one value given for 2 cell lines, strains, targets or settings
[16] = test system: RXF 393; assay: Antiproliferative activity against human RXF 393 cells assessed as inhibition of cell growth at 10 uM by SRB assay relative to control; format: functional
[17] = test system: SN12C; assay: Antiproliferative activity against human SN12C cells assessed as inhibition of cell growth at 10 uM by SRB assay relative to control; format: functional
[18] = test system: Hs-578T; assay: Antiproliferative activity against human Hs-578T cells assessed as inhibition of cell growth at 10 uM by SRB assay relative to control; format: functional
[19] = test system: Renal cancer cell line; assay: Antiproliferative activity against human renal cancer cells assessed as cell growth inhibition at 10 uM by SRB assay relative to control; format: functional
[20] = test system: Breast carcinoma cell; assay: Antiproliferative activity against human breast cancer cells assessed as cell growth inhibition at 10 uM by SRB assay relative to control; format: functional; details: pooled result: one value given for 3 cell lines, strains, targets or settings
[21] = test system: Lung cancer cell line; assay: Antiproliferative activity against human lung cancer cells assessed as cell growth inhibition at 10 uM by SRB assay relative to control; format: functional
[22] = Antiproliferative activity against human brain cancer cells assessed as cell growth inhibition at 10 uM by SRB assay relative to control; format: functional

Structure (SMILES): COc1cc2oc(-c3cccc(C(=O)Nc4ccc(Cl)cc4)c3)cc(=O)c2c(O)c1OC
- inhibition at 10 µM [1]: 82.6%
- inhibition at 10 µM [2]: 79.5%
- inhibition [3]: Active
- inhibition [4]: Active
- inhibition [5]: Active
- inhibition [6]: Active
- inhibition [7]: Active
- inhibition [8]: Active
- inhibition [9]: Active
- inhibition [10]: Active
- inhibition at 10 µM [11]: 57.3%
- inhibition at 10 µM [12]: 130%
- inhibition at 10 µM [13]: 83.7%
- inhibition at 10 µM [14]: 53%
- inhibition at 10 µM [15]: 53%
- inhibition at 10 µM [16]: 53%
- inhibition at 10 µM [17]: 53%
- inhibition at 10 µM [18]: 93.3%
- inhibition at 10 µM [19]: > 50%
- inhibition at 10 µM [20]: > 50%
- inhibition at 10 µM [21]: > 50%
- inhibition at 10 µM [22]: > 50%
